Patent US7285396B1, “Aβ-heme peroxidase” (Children's Hospital & Research Center at Oakland, priority 2006, dated 2007)

What was measured:
Aβ-heme peroxidase = molecular target: T1, Aβ-heme peroxidase (Homo sapiens, UniProt P05067); assay: Inhibition of Aβ-heme peroxidase activity (TMB assay or HPLC); inhibitor screen; type: biochemical; details: for identified as inhibitor of Aβ-heme peroxidase activity in library screen: TMB assay; for peroxidase activity of Aβ-heme: TMB assay or HPLC
T1 construct: Amyloid-β (Aβ) peptide (American Peptide, Sunnyvale, Calif.) is dissolved in distilled deionized water; purchased American Peptide, Sunnyvale, Calif

[1] = system: Tg2576 APPSw transgenic mouse; details: curcumin-treated Tg2576 APPSw mouse; Lim et al 2001; cited from earlier work
[2] = system: Tg2576 APPSw transgenic mouse; details: chronic dose of curcumin, APPSw mice; Lim 2001; cited from earlier work
[3] = system: human neuroblastoma (SHSY5Y) cells; assay: Effect of Aβ on intracellular iron / iron uptake in SHSY5Y cells; type: cell-based
SHSY5Y cells = type: cell-based, human
Protocol: (§1) The effect of Aβ on heme synthesis was used to test the biological effect of the Aβ and heme interaction. We expected an increase in heme synthesis due to depletion of regulatory heme if the binding between heme and Aβ occurs in the cell. […] A 40% increase in heme synthesis was seen after 2 h incubation with 0.1 μM Aβ. A 4-fold and 13-fold increase in heme synthesis was seen after 1 h of incubation with 1 and 10 μM Aβ, respectively. A 2.5-fold and 18-fold increase in heme synthesis was seen after 2 h of incubation with 1 and 10 μM Aβ, respectively. An increase in the uptake of cofactors of heme biosynthesis is necessary to support heme synthesis. […] A 55% increase in iron was seen after 2 h of incubation with 0.1 μM Aβ. […] A 2-fold and 8-fold increase in iron uptake was seen after 2 h of incubation with 1 and 10 μM Aβ, respectively. The exposure of SHSY5Y cells to Aβ was not toxic as measured by trypan blue exclusion tests and compared with controls.

[4] = system: human neuroblastoma (SHSY5Y) cells; assay: Effect of Aβ on heme synthesis in SHSY5Y cells; type: cell-based
Protocol: as §1

Aβ(1-40) = Aβ(1-40) (Homo sapiens, UniProt P05067); details: reference 13; cited from earlier work
Aβ(1-42) = Aβ(1-42) (Homo sapiens, UniProt P05067); details: reference 13; cited from earlier work
Chain of Aβ(1-42) (P05067 672-713 limits assumed): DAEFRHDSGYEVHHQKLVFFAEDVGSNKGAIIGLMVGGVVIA

T1 sequence (P05067 672-711 limits assumed): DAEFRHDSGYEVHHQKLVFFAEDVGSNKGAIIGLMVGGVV
Chain of Aβ(1-40) (P05067 672-711 limits assumed): as above

uroporphyrin III
identified as inhibitor of Aβ-heme peroxidase activity in library screen (Aβ-heme peroxidase): inhibitors

coproporphyrin I
identified as inhibitor of Aβ-heme peroxidase activity in library screen (Aβ-heme peroxidase): inhibitors

COc1cc(/C=C/C(=O)CC(=O)/C=C/c2ccc(O)c(OC)c2)ccc1O [curcumin]
oxidative damage [1]: reduced oxidative damage
peroxidase activity of Aβ-heme (Aβ-heme peroxidase; 1 μM curcumin): significantly inhibited
insoluble Aβ [2]: significantly reduces
soluble Aβ [2]: significantly reduces

uroporphyrin I
identified as inhibitor of Aβ-heme peroxidase activity in library screen (Aβ-heme peroxidase): inhibitors

ONCc1ccccc1 [N-benzylhydroxylamine (NBHA), N-benzylhydroxylamine]
peroxidase activity of Aβ-heme (Aβ-heme peroxidase; 100 μM N-benzylhydroxylamine): significantly inhibited

CNc1ccc2nc3ccc(N)cc3[s+]c2c1.[Cl-] [azure C]
identified as inhibitor of Aβ-heme peroxidase activity in library screen (Aβ-heme peroxidase): inhibitors

CC(=O)NO [N-(acetyl)hydroxylamine]
identified as inhibitor of Aβ-heme peroxidase activity in library screen (Aβ-heme peroxidase): inhibitors

ONC1CCCCC1 [N-cyclohexylhydroxylamine]
identified as inhibitor of Aβ-heme peroxidase activity in library screen (Aβ-heme peroxidase): inhibitors

Cc1cc2nc3ccc(N(C)C)cc3[s+]c2cc1N.[Cl-] [toluidine blue]
identified as inhibitor of Aβ-heme peroxidase activity in library screen (Aβ-heme peroxidase): inhibitors

CC(C)(C)NO [N-tert-butylhydroxylamine]
identified as inhibitor of Aβ-heme peroxidase activity in library screen (Aβ-heme peroxidase): inhibitors

coproporphyrin III
identified as inhibitor of Aβ-heme peroxidase activity in library screen (Aβ-heme peroxidase): inhibitors

Aβ: Amyloid-β (Aβ) peptide (American Peptide, Sunnyvale, Calif.)
increase in iron ([3]; 0.1 μM Aβ, 2 h incubation): 55%
increase in iron uptake ([3]; 1 μM Aβ, 1 h incubation): 4 fold
increase in iron uptake ([3]; 10 μM Aβ, 1 h incubation): 12.5 fold
increase in iron uptake ([3]; 10 μM Aβ, 2 h incubation): 8 fold
intracellular iron ([3]; Aβ 0.1, 1 and 10 μM): significantly increased
toxicity by trypan blue exclusion (SHSY5Y cells): not toxic
increase in heme synthesis ([4]; 0.1 μM Aβ, 2 h incubation): 40%
increase in heme synthesis ([4]; 1 μM Aβ, 1 h incubation): 4 fold
increase in heme synthesis ([4]; 1 μM Aβ, 2 h incubation): 2.5 fold
increase in heme synthesis ([4]; 10 μM Aβ, 1 h incubation): 13 fold
increase in heme synthesis ([4]; 10 μM Aβ, 2 h incubation): 18 fold
synthesis of heme ([4]; Aβ 0.1, 1 and 10 μM): significantly increased

azure B
identified as inhibitor of Aβ-heme peroxidase activity in library screen (Aβ-heme peroxidase): inhibitors

O=C(CNO)Cc1ccccc1 [N-(benzylcarbonyl)methylhydroxylamine]
identified as inhibitor of Aβ-heme peroxidase activity in library screen (Aβ-heme peroxidase): inhibitors

CN(C)c1ccc2nc3ccc(N)cc3[s+]c2c1.[Cl-] [azure A]
identified as inhibitor of Aβ-heme peroxidase activity in library screen (Aβ-heme peroxidase): inhibitors

O=C(O)CCNO [N-(2-carboxyethyl)hydroxylamine]
identified as inhibitor of Aβ-heme peroxidase activity in library screen (Aβ-heme peroxidase): inhibitors

CCNc1cc2[s+]c3cc(NCC)c(C)cc3nc2cc1C.[Cl-] [new methylene blue]
identified as inhibitor of Aβ-heme peroxidase activity in library screen (Aβ-heme peroxidase): inhibitors

C=CC1=C(C)c2cc3[n-]c(cc4[n-]c(cc5nc(cc1n2)C(C)=C5C=C)c(C)c4CCC(=O)O)c(CCC(=O)O)c3C.[Fe+2] [heme]
aggregation of Aβ(1-40) (Aβ(1-40)): prevented aggregation
aggregation of Aβ(1-42) (Aβ(1-42)): prevented aggregation

Cc1cc(N(C)C)cc2[s+]c3cc(N(C)C)cc(C)c3nc12 [1-9-dimethyl methylene blue]
identified as inhibitor of Aβ-heme peroxidase activity in library screen (Aβ-heme peroxidase): inhibitors

CC(C)NO [N-isopropylhydroxylamine]
identified as inhibitor of Aβ-heme peroxidase activity in library screen (Aβ-heme peroxidase): inhibitors

O=[N+]([O-])CCCNO [N-(3-nitropropyl)hydroxylamine]
identified as inhibitor of Aβ-heme peroxidase activity in library screen (Aβ-heme peroxidase): inhibitors

OCCCCNO [N-(4-hydroxybutyl)hydroxylamine]
identified as inhibitor of Aβ-heme peroxidase activity in library screen (Aβ-heme peroxidase): inhibitors
